Consider nine compounds from ChEMBL document CHEMBL2407088, “Frenolicins C-G, pyranonaphthoquinones from Streptomyces sp. RM-4-15” (J Nat Prod, 2013).

As a reminder, the IC50 is the concentration needed to halve the response being measured. A low value points to higher potency.

The experiment relates to A549. The experiment is described as follows: Cytotoxicity against human A549 cells after 2 days by resazurin reduction assay. Particulars: A549, 48 h.
Compound `CCC[C@H]1O[C@H](CC(=O)O)C[C@]2(SC[C@H](NC(C)=O)C(=O)O)C(=O)c3cccc(O)c3C(=O)[C@@]12O` registered an IC50 above 80 µM. Turning to `CCC[C@H]1O[C@H](CC(=O)O)C[C@@]2(O)C(=O)c3cccc(O)c3C(=O)[C@@]12O`, the IC50 was above 80 µM. Regarding `CCC[C@H]1O[C@H](CC(=O)O)C[C@]2(O)C(=O)c3cccc(O)c3C(=O)[C@@]12O`, the IC50 was above 80 µM. Turning to `CCC[C@H]1O[C@H](CC(=O)O)C[C@]23O[C@]12C(=O)c1c(O)cccc1[C@@H]3O`, the 50% inhibitory concentration (IC50) is above 80 µM. In the case of `CCC[C@H]1O[C@H](CC(=O)OC)[C@H](O)C2=C1C(=O)c1c(O)cccc1C2=O`, the IC50 was determined as 0.35 µM.

As to `CCC[C@H]1O[C@H](CC(=O)O)C[C@@H]2C(=O)c3cccc(O)c3C(=O)[C@]21O`, the half-maximal inhibitory concentration (IC50) was above 80 µM.

The compound `CCC[C@H]1O[C@H](CC(=O)O)CC2=C1C(=O)c1c(O)cccc1C2=O` [DEOXYFRENOLICIN] showed a half-maximal inhibitory concentration (IC50) of 1.07 µM. Take `CCC[C@H]1O[C@@H]2CC(=O)O[C@@H]2C2=C1C(=O)c1c(O)cccc1C2=O` [FRENOLICIN B]: half-maximal inhibition (IC50) was put at 0.28 µM. Compound `CCC[C@H]1O[C@H](CC(=O)O)C[C@]23O[C@]12C(=O)c1c(O)cccc1C3=O` [FRENOLICIN] showed an IC50 of 5.77 µM.
